Molecular target: T1, FIP1L1-PDGFRα (Homo sapiens, UniProt P16234, T674I, form not given)
T1 construct: gene PDGFRA; with Pre-mRNA 3'-end-processing factor FIP1
Type: cell-based
Settings: 24 h, 1000 nM, positive control; gatekeeper mutant; stated gain (imatinib resistance)

T1 sequence (P16234 550-1089 T674I limits assumed, form open): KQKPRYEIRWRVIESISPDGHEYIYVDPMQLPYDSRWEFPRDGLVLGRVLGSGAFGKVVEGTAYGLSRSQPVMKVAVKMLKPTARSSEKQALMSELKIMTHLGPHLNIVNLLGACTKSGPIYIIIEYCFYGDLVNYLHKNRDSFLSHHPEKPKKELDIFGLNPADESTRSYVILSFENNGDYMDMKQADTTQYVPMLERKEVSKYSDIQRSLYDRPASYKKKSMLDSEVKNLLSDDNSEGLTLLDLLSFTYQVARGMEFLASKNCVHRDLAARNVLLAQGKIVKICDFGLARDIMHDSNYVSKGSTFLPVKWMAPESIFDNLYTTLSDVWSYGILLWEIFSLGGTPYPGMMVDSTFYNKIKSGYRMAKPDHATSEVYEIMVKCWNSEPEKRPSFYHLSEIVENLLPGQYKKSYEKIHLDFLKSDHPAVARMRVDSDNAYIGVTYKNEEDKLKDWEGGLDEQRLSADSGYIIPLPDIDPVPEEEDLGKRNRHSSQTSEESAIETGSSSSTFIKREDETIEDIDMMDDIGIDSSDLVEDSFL
T1 sequence (Q6UN15 whole entry partner, form open): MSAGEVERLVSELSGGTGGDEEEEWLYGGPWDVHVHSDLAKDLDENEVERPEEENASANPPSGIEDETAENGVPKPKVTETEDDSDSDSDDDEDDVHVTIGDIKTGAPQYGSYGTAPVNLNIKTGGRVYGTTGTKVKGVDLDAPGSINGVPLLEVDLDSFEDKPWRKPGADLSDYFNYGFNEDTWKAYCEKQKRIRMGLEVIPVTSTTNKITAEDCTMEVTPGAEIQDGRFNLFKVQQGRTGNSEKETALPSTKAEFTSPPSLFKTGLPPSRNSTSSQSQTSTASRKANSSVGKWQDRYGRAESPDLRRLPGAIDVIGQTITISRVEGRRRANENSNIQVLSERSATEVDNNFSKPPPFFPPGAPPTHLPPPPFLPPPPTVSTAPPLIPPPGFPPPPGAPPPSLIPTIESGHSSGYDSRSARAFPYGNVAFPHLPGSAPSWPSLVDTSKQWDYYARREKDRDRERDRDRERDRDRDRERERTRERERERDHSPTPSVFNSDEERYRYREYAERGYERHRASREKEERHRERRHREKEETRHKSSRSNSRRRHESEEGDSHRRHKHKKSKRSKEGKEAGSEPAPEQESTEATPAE

CNC(=O)c1cc(Oc2ccc(NC(=O)Nc3ccc(Cl)c(C(F)(F)F)c3)cc2)ccn1 [sorafenib] was tested, and the “immunoblot of phospho-PDGFRα (Y1018) in BaF3 cells” value was “The phosphorylation of T674I FIP1L1-PDGFRα was altered by sorafenib but not imatinib”.
